Experimental data: article PMC10460844, “Real‐Time Monitoring of Multitarget Antimicrobial Mechanisms of Peptoids Using Label‐Free Imaging with Optical Diffraction Tomography” (Advanced Science, 2023)
Square brackets hold non-standard residues; d marks the D form. Peptide text beside a SMILES is read from it. Gly(N(CH2)2(3-indolyl)) = O=C(O)CNCCc1c[nH]c2ccccc12; Nspe = C[C@H](NCC(=O)O)c1ccccc1; Nlys = NCCCCNCC(=O)O

Legend:
Assay type in all cases: cell-based
[1] = system: HaCaT human keratinocytes; assay: MTS cytotoxicity assay; conditions: 24 h exposure in DMEM, concentration killing 50% of cells
Protocol: 4. Cell culture and cytotoxicity test using MTS assay
(Seoul, South Korea), human keratinocytes (HaCaT) were provided by the Skin Research Institute R&D Center of Amore Pacific Company (Yongin, South Korea). All cells were grown in Dulbecco's modified Eagle’s medium (DMEM) supplemented with 10% fetal bovine serum at 37 °C in an atmosphere containing 5% CO2. The 3-(4,5-dimethylthiazol-2- […]
assays were used to determine the effects of peptoids on cell growth.[4] Aliquots (100 µL) of media containing 1.3×10^4 MRC-5 cells/mL or 3×10^4 HaCaT cells/mL were distributed into each well of a 96-well plate (Eppendorf, Hamburg, Germany). The cells were allowed to attach and were grown in a humidified atmosphere containing 5% CO2 at 37 °C for 24 h.
When the cell density reached approximately 70% confluency, the medium was replaced with serial dilutions of the peptoid stock in DMEM and incubated for an additional 24 h. […] The MTS-formazan products in viable cells were measured at 490 nm using a microplate reader, and the percentage of cell viability (%) was calculated by comparing readings to the values of untreated wells. Percentage values of cell viability were calculated as A/(A control)×100, where A is the absorbance of the test well and A control is the average absorbance of wells containing untreated cells. […]

[2] = system: E. coli ATCC 25922; conditions: ODT, 30 min treatment; buforin-II 25 µM, melittin 25 µM, 29 4 × MIC
Protocol: Three‐dimensional (3D) optical diffraction tomography (ODT) and fluorescence images of live bacterial cells were obtained using an HT‐2H Mach−Zehnder interferometric microscope, combining both ODT and fluorescence imaging into a single unit (Tomocube, Daejon, South Korea). 3D Fluorescence imaging was carried out, using three light sources (385, 470, and 565 nm) via serial fluorescence image acquisition in multiple planes followed by 3D deconvolution. 3D correlative imaging, using a combination of ODT and fluorescence imaging was performed using commercial software (TomoStudioTM, Tomocube) as described previously^[ [23c] ^] Bacterial cells were grown overnight and diluted (≈10^7 CFU mL^−1) in cation‐adjusted MHB2 media. The cells were loaded onto 50 mm imaging dishes with a #1.5H glass coverslip bottom (TomoDish, Tomocube) that were precoated with 0.01% (w/v) poly‐L‐lysine (Sigma‐Aldrich) in water. After 30 min incubation at room temperature, the coverslips were washed twice with PBS (pH 7.4) to remove unattached cells, and the media was replaced with PBS for the duration of the imaging. To monitor the change in bacterial morphology, bacterial cells were treated with a peptoid (or with control AMPs) in PBS containing FM4‐64 (10 µg mL^−1) or propidium iodide (10 µg mL^−1). To analyze 3D refractive index (RI) tomograms, individual bacteria were captured using ODT equipped with a digital micromirror device (Tomocube). In more detail, the light scattered by the bacterial cells was collected by an objective lens (NA = 1.2, water dipping, UPLSAPO 60XW, Olympus) and recorded by a digital image sensor (CMOS camera, FL3‐U313Y3M‐C, FLIR Systems). Using a field retrieval algorithm, the amplitude and phase images were retrieved from the obtained multiple holograms, and then the 3D RI distribution was determined.
The analysis tool in the TomoStudio software (Tomocube) was used to measure specific values, including the refractive index (RI) and the cell volume of bacteria. These values were determined from RI increments (RII) of 0.190 fL pg^−1, which is known as a representative value and was assumed to be the same for most proteins.^[ [46] ^]

[3] = system: E. coli ATCC 25922; assay: Killing kinetics; conditions: 4 × MIC, E. coli ATCC 25922, MHB2, 37 °C, CFU counting, triplicates
Protocol: structure of peptoids. SAXS data on peptoids in aqueous environment at different peptoid concentrations (indicated in legends), plotted together with best fit. a) 11 b) 29.
14. In vitro biological assays
The kinetics of antimicrobial activity against E. coli (ATCC 25922) were assessed at a […]
Briefly, an overnight culture of bacteria was diluted at mid log-phase bacteria (2–5 × 10^5 cfu/mL) and incubated with peptoid with desired concentration in MHB2. The bacterial suspension was added to a 96-well polypropylene u- bottomed plate containing the peptoid. The plate was incubated without shaking at 37 °C for 4 h. Samples (20 μl) were taken at time 0.5, 1, 2 and 4 h and diluted in ice PBS buffer from which 100 μl was plated on LB agar plates. The plates were incubated for 18–24 hours at 37 °C and colony forming units (CFU) were counted. The experiment was conducted triplicates, and a curve was plotted between CFU and time (h).
The ability of peptoids to increase the permeability of the outer membrane of Gram-negative bacteria was determined by measuring the incorporation of the NPN fluorescent dye into the outer membrane of E. coli ATCC 25922. Bacterial cells were suspended to a final concentration of OD600 = 0.05 in 5 mM HEPES buffer, pH 7.2, containing 5 mM KCN. Then […]
(1 picture or pasted object on this page, not shown here)

## C[C@@H](c1ccccc1)N(CC(N)=O)C(=O)CN(C(=O)CN(CCCCN)C(=O)CN(C(=O)CN(C(=O)CN(CCCCN)C(=O)CN(C(=O)CN(C(=O)CN(CCCCN)C(=O)CN(C(=O)CN(C(=O)CNCCCCN)[C@@H](C)c1ccccc1)[C@@H](C)c1ccccc1)[C@@H](C)c1ccccc1)[C@@H](C)c1ccccc1)[C@@H](C)c1ccccc1)[C@@H](C)c1ccccc1)[C@@H](C)c1ccccc1 [peptoid 1, reference compound] (H-[Nlys][Nspe][Nspe][Nlys][Nspe][Nspe][Nlys][Nspe][Nspe][Nlys][Nspe][Nspe]-NH2)
[1]
  LC50 HaCaT: 7.3 µM

## C[C@@H](c1ccccc1)N(CC(=O)N(CCCCN)CC(=O)N(CCc1c[nH]c2ccccc12)CC(=O)N(CCc1c[nH]c2ccccc12)CC(N)=O)C(=O)CN(CCCCN)C(=O)CN(CCCCN)C(=O)CN(C(=O)CN(C(=O)CN(CCCCN)C(=O)CN(C(=O)CN(C(=O)CNCCCCN)[C@@H](C)c1ccccc1)[C@@H](C)c1ccccc1)[C@@H](C)c1ccccc1)[C@@H](C)c1ccccc1 [peptoid 29] (H-[Nlys][Nspe][Nspe][Nlys][Nspe][Nspe][Nlys][Nlys][Nspe][Nlys][Gly(N(CH2)2(3-indolyl))][Gly(N(CH2)2(3-indolyl))]-NH2)
[2]
  change of cell volume: notable reduction in cell volume
  change of mean RI value versus control cells: significantly increased mean RI values
[3]
  time to complete eradication of bacteria: 4 h
